Legend:
Sprague Dawley rats = assay: Forced swim test (FST) in rats; type: in vivo, rat; conditions: rat FST, 20 mg/kg SC at 23.5 h, 5 h and 1 h before test swim; average of 3 independent experiments
Description: Compound 1 induced antidepressant-like effects in the forced swim test (FST) in rats with a 23.5-h pre-treatment time (FIG. 2).
Animals. Male Sprague Dawley rats, aged 9-10 weeks, were used in this experiment. Animals were housed in groups of 2 under controlled temperature (22±3° C.) and relative humidity (30-70%) conditions, with 12-hour light/dark cycles, and with ad libitum food and water. This study was carried out in strict accordance with the requirements of the Committee for the Purpose of Control and Supervision of Experiments on Animals (CPCSEA), India. All efforts were made to minimize suffering.
Drugs and Drug Administration. Compound 1 was synthesized as described above. Desipramine HCl was commercially obtained. The test compound, saline vehicle, and the positive control desipramine were administered subcutaneously (SC), with doses calculated based on the freebase. Normal saline was used as the vehicle. All compounds were administered at a volume of 5 mL/kg. The test compound and vehicle were administered 0.5 h after the start of the training swim (Swim 1) and 23.5 h before the test swim (Swim 2). Desipramine was administered 3 times, at 23.5 h, 5 h, and 1 h before the test swim (Swim 2), each time at a dose of 20 mg/kg. Group size was n=10 per treatment.
Forced Swim Test (FST). […] Rats were handled for about 2 min daily for the 5 days prior to the beginning of the experimental procedure. On the first day of the experiment (i.e., Day 0), post randomization, training swim sessions (Swim 1) were conducted between 12:00 and 18:00 h with all animals by placing rats in individual glass cylinders (46 cm tall×20 cm in diameter) containing 23-25° C. water 30 cm deep for 15 minutes. At the conclusion of Swim 1, animals were dried with paper towels, placed in heated drying cages for 15 minutes, and then returned to their home cages. Animals were then administered the appropriate drug or vehicle treatment(s), as described above. For clarity, a compound administration time of 23.5 h before Swim 2 means 0.5 h after the start of Swim 1 and 0.25 h after the completion of Swim 1 (i.e., immediately after return to the home cage). On Day 1 (i.e., 24 h after start of Swim 1), animals performed the test swim (Swim 2) for a period of 5 min but otherwise under the same conditions as Swim 1. During all swim sessions, the water was changed between each animal.
Behavioral scoring was conducted by observers who were blind to the treatment groups. Animals were continuously observed during Swim 2 and the total time spent engaging in the following behaviors was recorded: immobile, swimming, and climbing. A rat was judged to be immobile when it remained floating in the water without struggling and was making only those movements necessary to keep its head above water. A rat was judged to be swimming when it made active swimming motions, more than necessary to merely maintain its head above water (e.g., moving around in the cylinder). A rat was judged to be climbing when it made active movements with its forepaws in and out of the water, usually directed against the walls.
Statistical Analysis. The data points shown represent the mean±standard error of the mean (SEM). Analysis was performed using GraphPad Prism 6. Comparisons between groups were performed using the one-way analysis of variance (ANOVA), followed by Dunnett's test for comparisons to vehicle.
Additional disclosed compounds were tested in the forced swim test (FST) in rats according to the procedure described in Example 35.

5-HT1A receptor = 5-HT1A receptor (Homo sapiens (Human), UniProt P08908); assay: FLIPR Ca^2+ flux agonist assay at 5-HT1A; type: cell-based; conditions: CHO cells
5-HT1B receptor = 5-HT1B receptor (Homo sapiens (Human), UniProt P28222); assay: cAMP accumulation agonist assay at 5-HT1B; type: cell-based
Description: Functional Assay at 5-HT1B. Agonist activity at 5-HT1B was determined using a cAMP accumulation protocol at WuXi AppTec (Hong Kong) Limited according to their standard protocols. Briefly, stably transfected cells were plated in an OptiPlate-384 well plate, incubated at RT for 60 mins, and cAMP standard solution (800 nM, 10 μL) was added to the blank well. Then, 10 μL detection reagent was added to each well, the plate incubated for 60 mins at RT, and the plate read using EnVision.

5-HT2B receptor = 5-HT2B receptor (Homo sapiens (Human), UniProt P41595); assay: FLIPR Ca^2+ flux agonist assay at 5-HT2B; type: cell-based; conditions: HEK293
How it was run: (§1)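 Agonist-induced calcium flux was measured on FLIPR Tetra in stable HEK293 cells for 5-HT2A and 5-HT2B, and in stable CHO cells for 5-HT1A. Cells were loaded with Fluo-4 Direct dye and 2.5 mM probenecid for 50 min at 37 °C before compound addition and fluorescence reading.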

[1] = Metabolic stability in rat liver microsomes (RLM); type: in vitro ADME; conditions: both sexes, rat, pooled rat liver microsomes, pH 7.4, NADPH
Alpha1A receptor = Alpha1A receptor (Homo sapiens (Human), UniProt P35348); assay: FLIPR Ca^2+ flux agonist assay at Alpha1A; type: cell-based
Description: Disclosed compounds were tested for agonist activity at several adrenergic (Alpha1A and Alpha2A) and dopamine (D1 and D2) receptor subtypes using Ca^2+ flux functional assays, with the results summarized in Table 6. Selectivity for the 5-HT2A receptor over these other targets varied depending on the specific target and compound.
(§2) Functional Assays at Adrenergic and Dopamine Receptors. Agonist activity at Alpha1A, Alpha2A, D1, and D2 receptors was determined using a FLIPR Ca^2+ flux assay at WuXi AppTec (Hong Kong) Limited according to their standard protocols. Briefly, stably transfected cells expressing the receptor of interest were grown and plated in a 384 well plate and incubated at 37° C. and 5% CO2 overnight. A solution of 250 mM probenecid in 1 mL FLIPR assay buffer was prepared fresh. This was combined with a fluorescent dye (Fluo-4 Direct™) to make a final assay concentration of 2.5 mM. Compounds were diluted 1:3.16 for 10 points and 750 nL was added to a 384 well compound plate using ECHO along with 30 μL assay buffer. The fluorescent dye was then added to the assay plate along with assay buffer to a final volume of 40 μL. The cell plate was incubated for 50 min at 37° C. and 5% CO2 and placed into the FLIPR Tetra along with the compound plate. 10 μL of references and compounds were then transferred from the compound plate into the cell plate and the fluorescent signal was read.

[2] = Metabolic stability in human liver microsomes (HLM); type: in vitro ADME; conditions: both sexes, human, pooled human liver microsomes, pH 7.4, NADPH
Description: HLM Stability. Pooled HLM from adult male and female donors (Corning 452117) were used.

[3] = Metabolic stability in mouse liver microsomes (MLM); type: in vitro ADME; conditions: mouse, pooled mouse liver microsomes, pH 7.4, MLM (CD-1), NADPH
Description: MLM Stability Pooled MLM from CD-1 mice (BIOIVT M00501) were used.

5-HT2A receptor [4] = target: T1, 5-HT2A receptor (Homo sapiens (Human), UniProt P28223); type: cell-based; conditions: Ca^2+ flux, HEK293
How it was run: as §1

D2 receptor = D2 receptor (Homo sapiens (Human), UniProt P14416); assay: FLIPR Ca^2+ flux agonist assay at D2; type: cell-based
Description: as §2, with “Compounds were diluted 1:3.16 for 10 points and 750 nL was added to a 384 well compound plate using ECHO along with 30 μL assay buffer.” left out

D1 receptor = D1 receptor (Homo sapiens (Human), UniProt P21728); assay: FLIPR Ca^2+ flux agonist assay at D1; type: cell-based
Description: as §2, with “Compounds were diluted 1:3.16 for 10 points and 750 nL was added to a 384 well compound plate using ECHO along with 30 μL assay buffer.” left out

5-HT2A receptor [5] = target: T1, 5-HT2A receptor; type: cell-based; conditions: beta-arrestin recruitment
Description: The degree of arrestin bias varied substantially across the other compounds tested as well.
Arrestin Functional Assay at 5-HT2A. Recruitment of beta-arrestin was determined using a PathHunter assay at Eurofins DiscoverX (Fremont, CA) according to their standard protocols. PathHunter GPCR beta-arrestin assays take advantage of DiscoverX's proprietary Enzyme Fragment Complementation technology. The GPCR is fused in frame with a small enzyme donor fragment ProLink™ (PK) and co-expressed in cells stably expressing a fusion protein of beta-arrestin and the larger, N-terminal deletion mutant of beta-galactosidase. Activation of the GPCR (5-HT2A receptor in this case) stimulates binding of beta-arrestin to the PK-tagged GPCR and forces complementation of the two enzyme fragments, resulting in the formation of an active beta-galactosidase enzyme. This interaction leads to an increase in enzyme activity that can be measured using chemiluminescent PathHunter Detection Reagents. Briefly, PathHunter cells expressing 5-HT2A receptors were seeded in a volume of 20 μL into 384-well plates and incubated at 37° C. for the appropriate time prior to testing. […] Plates were then imaged on a microplate reader and the agonist activity was calculated using the following formula: % Activity=100%×(mean RLU of test sample−mean RLU of vehicle control)/(mean MAX control ligand−mean RLU of vehicle control), where RLU=relative light units.

Chain of 5-HT1B receptor (P28222 whole entry, looked up): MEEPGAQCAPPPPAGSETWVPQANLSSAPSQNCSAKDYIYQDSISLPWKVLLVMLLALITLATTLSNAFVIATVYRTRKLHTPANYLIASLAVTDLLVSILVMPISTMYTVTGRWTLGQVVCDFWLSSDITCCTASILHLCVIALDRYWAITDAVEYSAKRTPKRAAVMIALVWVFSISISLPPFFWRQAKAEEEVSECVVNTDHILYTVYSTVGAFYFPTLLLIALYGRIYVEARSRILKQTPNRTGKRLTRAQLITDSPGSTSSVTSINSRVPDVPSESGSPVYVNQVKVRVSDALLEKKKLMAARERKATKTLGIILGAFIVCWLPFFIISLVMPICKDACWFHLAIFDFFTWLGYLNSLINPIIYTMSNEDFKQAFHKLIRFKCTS
Chain of 5-HT2B receptor (P41595 whole entry, looked up): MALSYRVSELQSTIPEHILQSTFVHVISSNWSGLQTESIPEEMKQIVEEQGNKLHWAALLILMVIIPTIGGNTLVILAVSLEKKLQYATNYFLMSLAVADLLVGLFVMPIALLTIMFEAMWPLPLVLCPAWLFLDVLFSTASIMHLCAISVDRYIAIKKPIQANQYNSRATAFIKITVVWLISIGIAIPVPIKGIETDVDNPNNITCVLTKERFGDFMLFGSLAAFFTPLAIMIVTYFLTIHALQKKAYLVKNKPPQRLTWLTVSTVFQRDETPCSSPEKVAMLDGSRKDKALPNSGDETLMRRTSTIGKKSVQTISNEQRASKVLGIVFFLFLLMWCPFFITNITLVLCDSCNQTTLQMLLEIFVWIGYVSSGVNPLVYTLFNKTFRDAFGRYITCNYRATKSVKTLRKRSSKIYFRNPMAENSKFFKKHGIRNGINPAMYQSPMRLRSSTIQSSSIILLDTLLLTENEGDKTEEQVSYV
Chain of Alpha1A receptor (P35348 whole entry, looked up): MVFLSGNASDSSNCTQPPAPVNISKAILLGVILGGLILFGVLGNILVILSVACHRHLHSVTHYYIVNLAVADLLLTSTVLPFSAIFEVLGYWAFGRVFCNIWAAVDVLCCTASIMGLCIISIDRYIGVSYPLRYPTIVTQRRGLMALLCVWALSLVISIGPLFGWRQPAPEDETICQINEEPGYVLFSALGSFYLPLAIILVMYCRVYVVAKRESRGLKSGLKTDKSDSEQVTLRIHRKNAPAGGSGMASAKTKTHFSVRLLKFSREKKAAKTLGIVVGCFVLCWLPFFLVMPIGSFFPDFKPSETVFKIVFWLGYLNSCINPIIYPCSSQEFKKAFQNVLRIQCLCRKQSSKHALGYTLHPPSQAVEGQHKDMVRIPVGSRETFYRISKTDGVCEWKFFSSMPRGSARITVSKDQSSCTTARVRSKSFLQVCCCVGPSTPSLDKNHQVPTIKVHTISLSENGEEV
Chain of D1 receptor (P21728 whole entry, looked up): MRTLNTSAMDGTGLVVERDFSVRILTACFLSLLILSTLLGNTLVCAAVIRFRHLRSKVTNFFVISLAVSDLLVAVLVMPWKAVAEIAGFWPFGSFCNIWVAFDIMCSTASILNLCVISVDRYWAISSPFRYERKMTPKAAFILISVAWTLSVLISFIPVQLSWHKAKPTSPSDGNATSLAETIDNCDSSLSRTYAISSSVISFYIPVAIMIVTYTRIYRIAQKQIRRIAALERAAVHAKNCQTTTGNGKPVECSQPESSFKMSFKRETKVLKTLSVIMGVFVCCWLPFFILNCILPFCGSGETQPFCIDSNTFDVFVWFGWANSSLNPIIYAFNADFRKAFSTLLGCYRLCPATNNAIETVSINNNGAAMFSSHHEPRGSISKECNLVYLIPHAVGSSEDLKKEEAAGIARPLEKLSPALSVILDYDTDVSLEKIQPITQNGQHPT
Chain of D2 receptor (P14416 whole entry, looked up): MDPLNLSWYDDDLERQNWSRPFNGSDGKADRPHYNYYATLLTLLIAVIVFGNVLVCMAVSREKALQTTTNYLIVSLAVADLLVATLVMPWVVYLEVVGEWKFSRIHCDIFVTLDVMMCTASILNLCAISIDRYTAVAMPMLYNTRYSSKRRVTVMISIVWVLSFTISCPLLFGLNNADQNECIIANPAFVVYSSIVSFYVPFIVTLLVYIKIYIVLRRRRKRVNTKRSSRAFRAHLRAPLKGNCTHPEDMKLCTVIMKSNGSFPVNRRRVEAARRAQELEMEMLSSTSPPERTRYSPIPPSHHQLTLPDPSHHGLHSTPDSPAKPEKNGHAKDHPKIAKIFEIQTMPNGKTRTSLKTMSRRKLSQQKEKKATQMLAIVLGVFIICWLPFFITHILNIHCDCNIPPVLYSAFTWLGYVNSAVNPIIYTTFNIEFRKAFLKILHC

| SMILES | Time Immobile (Sprague Dawley rats) | 5-HT1A % Act @ Max Dose (5-HT1A receptor) | 5-HT1B % Act @ Max Dose (5-HT1B receptor) | 5-HT2B % Act @ Max Dose (5-HT2B receptor) | half-life at 1 μM [1] | Alpha 1A % Act @ Max Dose (Alpha1A receptor) | half-life at 1 μM [2] | half-life at 1 μM [3] | 5-HT2A % Act @ Max Dose (5-HT2A receptor [4]) | D2 % Act @ Max Dose (D2 receptor) | D1 % Act @ Max Dose (D1 receptor) | 5-HT2A Arrestin % Act @ Max Dose (5-HT2A receptor [5]) | agonist type in the 5-HT2A arrestin recruitment assay, in words (5-HT2A receptor [5]) |
| --- | --- | --- | --- | --- | --- | --- | --- | --- | --- | --- | --- | --- | --- |
| CNCCCN1c2ccccc2CCc2ccccc21 [Desipramine, reference compound] | 60.93 s | – | – | – | – | – | – | – | – | – | – | – | – |
| CCN(CC)C(=O)[C@@H]1C=C2c3cccc4[nH]cc(c34)C[C@H]2N(CCC(F)(F)F)C1 [Compound 12, (6aR,9R)-N,N-diethyl-7-(3,3,3-trifluoropropyl)-4,6,6a,7,8,9-hexahydroindolo[4,3-fg]quinoline-9-carboxamide] | – | 71.42% | 95.51% | 29.55% | 5.9 min | 2.08% | 13.5 min | 2.1 min | 78.69% | – | – | – | – |
| CCN(CC)C(=O)[C@@H]1C=C2c3cccc4[nH]cc(c34)C[C@H]2N(CC2CC2)C1 [Compound 13, (6aR,9R)-N,N-diethyl-7-(Cyclopropylmethyl)-4,6,6a,7,8,9-hexahydroindolo[4,3-fg]quinoline-9-carboxamide] | – | 83.08% | 90.43% | 91.75% | 27.7 min | 80.79% | 21.1 min | 3.7 min | 92.60% | – | – | – | – |
| CCN(CC)C(=O)[C@@H]1C=C2c3cccc4[nH]cc(c34)C[C@H]2N(C)C1 [LSD, lysergic acid diethylamide, reference compound] | – | 91.39% | 98.03% | 19.26% | 60.2 min | 60.3% | 71.6 min | 31.3 min | 107.7% | 78.33% | 94.9% | 52.646% | partial agonists |

From patent US20240368151A1, “NOVEL ERGOLINES AND METHODS OF TREATING MOOD DISORDERS” (priority 2021, published 2024)
